Measurements as given in US20230322776A1, “NEW ARYL-PYRIDO-PYRIMIDIN-ONE DERIVATIVES” (Hoffmann-La Roche Inc., priority 2020, published 2023).

How the values were obtained:
[1] = molecular target: BRAF V660E (Homo sapiens, UniProt P15056, V600E); assay: KD BRAF V660E (Table 1; no method described); assay type: binding
[2] = molecular target: BRAF (Homo sapiens, UniProt P15056); assay: KD BRAF (Table 1; no method described); assay type: binding
[3] = tested on: A375 cells (V600E mutated BRAF), ERK phospho-T202/Y204; assay: HTRF assay for P-ERK determination in A375 cells (BRAF inhibition); assay type: cell-based; conditions: Homo sapiens, A-375, 1 hour drug incubation, DMSO = 100%, 10 μM Dabrafenib = 0%, top concentration 10 μM, read-out: P-ERK_A375: IC50
Text: (§1) A375 is a cellular cancer model expressing V600E mutated BRAF and HCT116 a cellular cancer model expressing WT BRAF. First generation BRAF inhibitors such as e.g. dabrafenib induce a paradox effect on tumour cells in that they inhibit the growth of V600E mutated BRAF cells (such as e.g. A375), while they activate growth in WT BRAF cells (such as e.g. HCT 116). ERK 1,2 phosphorylation (terminal member of the phosphorylation cascade of the MAPK pathway) is hereafter reported as main readout for the activation status of the MAPK pathway. DMEM no-phenol red medium supplemented with L-glutamine was purchased from (Thermo Fisher Scientific). Fetal bovine serum (FBS) was purchased from VWR. Advanced ERK phospho-T202/Y204 kit—10,000 tests was purchased from Cisbio cat #64AERPEH. A375 (catalog #CRL-1619) and HCT116 (catalog #CCL-247) cells were originally obtained from American type Culture Collection (ATCC) and banked by the Roche repository. 384-Well microplates ultized were purchased from Greiner Bio-One, 384-well, (With Lid, HiBase, Low volume cat 784-080).
(§2) HTRF Assay for P-ERK Determination in A375 or HCT116 Cells
(§3) Prior to the assay, A375 and HCT116 cell lines are maintained in DMEM no-phenol red medium supplemented with 10% fetal bovine serum (FBS). Following compound treatment, P-ERK levels are determined by measuring FRET fluorescence signal induced by selective binding of two antibodies provided in the mentioned kit (Cisbio cat #64AERPEH) on ERK protein when phosphorylated at Thr202/Tyr204. Briefly, 8000 cells/well in 12 μl media/well are plated in the 384-well plate and left overnight in the incubator (at 37° C. with 5% CO2-humidified atmosphere), the following day the plate is treated in duplicate with test compounds, dabrafenib and PLX8394 (the latter two as controls) at the following final drug concentrations: 10 μM, 3 μM, 1 μM, 0.3 μM, 0.1 μM, 0.03 μM, 0.01 μM, 0.003 μM and 0.001 μM. All wells are subjected to DMSO normalization and drug incubation occurs for 1 hour. Then, 4 μl of a 4× lysis buffer supplied with the kit are added to the wells, the plate is then centrifuged for 30 second (3000 rpm) and incubated on a plate shaker for 1 h at rt.
(§4) At the end of the incubation 4 μl/well of advanced P-ERK antibody solution (prepared according to manufacturer's instruction) followed by 4 μl/well of criptate P-ERK antibody solution (prepared according to manufacturer's instruction) (Cisbio cat #64AERPEH) are added to test wells.
(§5) In order to allow proper data normalization, control wells non drug treated reported in the following table are always included in each plate (according to manufacturer's instruction):
(§6) The plate is then centrifuged at 3000 rpm for 30 seconds, sealed to prevent evaporation and incubated overnight in the dark at room temperature. The plate is then analyzed and fluorescence emission value collected through a Pherastast FSX (BMG Labtech) apparatus at […]. The obtained fluorescence values are processed according to the formula Ratio=[…]*10000 then the average of the ratio on the blank is subtracted to all values.
Data are normalized in the case of A375 cells (BRAF inhibition) considering the average of the ratio (blank subtracted) derived by DMSO only treated cells as 100% and by considering the average of the ratio (blank subtracted) derived by 10 μM Dabrafenib treated cells as 0%. Mean of the normalized points are fitted with sigmoidal curve and IC50 values are determined.

[4] = tested on: HCT116 cells (WT BRAF), ERK phospho-T202/Y204; assay: HTRF assay for P-ERK determination in HCT116 cells (BRAF activation, paradox); assay type: cell-based; conditions: for EC50: Homo sapiens, HCT-116, HCT116 cells, 1 hour drug incubation, activation relative to maximum Dabrafenib-mediated activation (100%), top concentration 10 μM, read-out: P-ERK_HCT-116: EC50—50PCT; for Fold Selectivity HCT-116 EC50-50/ A375: ratio of P-ERK HCT-116 EC50-50PCT to P-ERK A375 IC50
Text: as §1, §2, §3, §4, §5, §6
Data are normalized in the case of HCT116 cells (BRAF activation) considering the average of the ratio (blank subtracted) derived by DMSO only treated cells as 0% and by considering the average of the ratio (blank subtracted) derived by Dabrafenib treated cells at the concentration which provides the highest signal as 100%. Individual points are fitted with either sigmoidal or bell shape curves, the percentage of activation compared to maximum Dabrafenib-mediated activation is determined.

Chain of BRAF V660E (P15056 2-766 V600E): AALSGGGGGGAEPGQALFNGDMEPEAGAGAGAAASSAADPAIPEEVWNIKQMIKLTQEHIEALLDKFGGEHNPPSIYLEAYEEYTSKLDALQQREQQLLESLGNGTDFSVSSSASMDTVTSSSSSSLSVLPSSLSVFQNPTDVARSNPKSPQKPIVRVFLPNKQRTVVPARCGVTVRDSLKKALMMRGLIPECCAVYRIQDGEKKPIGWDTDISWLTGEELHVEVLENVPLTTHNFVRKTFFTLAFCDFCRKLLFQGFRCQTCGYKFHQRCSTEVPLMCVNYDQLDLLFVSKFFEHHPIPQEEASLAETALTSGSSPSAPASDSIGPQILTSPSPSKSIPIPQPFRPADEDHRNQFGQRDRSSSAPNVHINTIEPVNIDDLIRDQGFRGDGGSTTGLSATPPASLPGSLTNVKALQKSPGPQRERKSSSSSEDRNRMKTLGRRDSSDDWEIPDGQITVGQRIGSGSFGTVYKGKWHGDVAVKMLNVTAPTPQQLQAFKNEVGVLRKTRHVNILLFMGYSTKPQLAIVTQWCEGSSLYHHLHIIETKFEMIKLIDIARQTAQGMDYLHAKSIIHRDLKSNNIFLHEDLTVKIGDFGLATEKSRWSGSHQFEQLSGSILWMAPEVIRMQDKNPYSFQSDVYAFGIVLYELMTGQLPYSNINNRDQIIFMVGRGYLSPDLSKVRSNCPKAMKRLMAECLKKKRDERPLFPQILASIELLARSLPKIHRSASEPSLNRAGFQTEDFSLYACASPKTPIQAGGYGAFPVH
Chain of BRAF (P15056 whole entry): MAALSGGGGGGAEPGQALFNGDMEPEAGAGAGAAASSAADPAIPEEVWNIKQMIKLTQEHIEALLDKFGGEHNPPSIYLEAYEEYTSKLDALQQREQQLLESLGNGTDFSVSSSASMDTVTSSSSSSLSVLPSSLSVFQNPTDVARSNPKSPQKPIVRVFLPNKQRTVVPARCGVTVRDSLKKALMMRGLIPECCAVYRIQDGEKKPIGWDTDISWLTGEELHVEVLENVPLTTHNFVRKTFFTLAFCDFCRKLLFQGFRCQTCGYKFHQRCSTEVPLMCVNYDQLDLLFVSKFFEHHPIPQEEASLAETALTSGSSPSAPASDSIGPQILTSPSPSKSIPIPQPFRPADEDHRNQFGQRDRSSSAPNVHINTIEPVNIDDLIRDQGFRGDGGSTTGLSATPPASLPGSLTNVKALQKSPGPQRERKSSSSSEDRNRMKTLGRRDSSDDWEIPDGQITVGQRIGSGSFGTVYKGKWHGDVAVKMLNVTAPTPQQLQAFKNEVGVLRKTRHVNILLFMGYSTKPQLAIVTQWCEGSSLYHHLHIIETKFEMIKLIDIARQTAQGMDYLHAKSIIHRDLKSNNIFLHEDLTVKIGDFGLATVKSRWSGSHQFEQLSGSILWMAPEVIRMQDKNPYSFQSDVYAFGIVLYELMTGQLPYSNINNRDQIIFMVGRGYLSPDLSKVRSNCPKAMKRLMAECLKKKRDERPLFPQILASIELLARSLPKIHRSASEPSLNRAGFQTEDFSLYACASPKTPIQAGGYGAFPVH

SMILES	Kd [1] [nM]	Kd [2] [nM]	IC50 [3] [nM]	EC50 [4] [nM]	Fold Selectivity HCT-116 EC50-50/ A375 [4]
CC(C)(C)OC(=O)N1CCC(n2c(=O)c(-c3c(F)ccc(NS(=O)(=O)N4CC[C@@H](F)C4)c3F)cc3cnc(NCC4CC4)nc32)C1 (mixture of isomers) [Example 38, tert-Butyl (3RS)-3-[2-(cyclopropylmethylamino)-6-[2,6-difluoro-3-[[(3R)-3-fluoropyrrolidin-1-yl]sulfonylamino]phenyl]-7-oxopyrido[2,3-d]pyrimidin-8-yl]pyrrolidine-1-carboxylate]	2820	1420	826	≥ 10000	12.1
Cl.O=c1c(-c2c(F)ccc(NS(=O)(=O)N3CC[C@@H](F)C3)c2F)cc2cnc(NCC3CC3)nc2n1C1CCNC1 (mixture of isomers) [Example 40, (3R)-N-[3-[2-(cyclopropylmethylamino)-7-oxo-8-[(3RS)-pyrrolidin-3-yl]pyrido[2,3-d]pyrimidin-6-yl]-2,4-difluorophenyl]-3-fluoropyrrolidine-1-sulfonamide hydrochloride]	408	145	3810	≥ 10000	2.6
CC(=O)N1CCC(n2c(=O)c(-c3c(F)ccc(NS(=O)(=O)N4CC[C@@H](F)C4)c3F)cc3cnc(NCC4CC4)nc32)C1 (mixture of isomers) [Example 42, (3R)-N-[3-[8-((3RS)-1-acetylpyrrolidin-3-yl)-2-(cyclopropylmethylamino)-7-oxopyrido[2,3-d]pyrimidin-6-yl]-2,4-difluorophenyl]-3-fluoropyrrolidine-1-sulfonamide]	50.4	22.6	378	4840	12.8
CC(=O)N[C@@H]1CC[C@@H](Nc2ncc3cc(-c4c(F)ccc(NS(=O)(=O)N5CC[C@@H](F)C5)c4F)c(=O)n(C)c3n2)C1 (racemic) [Example 23, N-[(1R,3R)-3-[[6-[2,6-difluoro-3-[[(3R)-3-fluoropyrrolidin-1-yl]sulfonylamino]phenyl]-8-methyl-7-oxopyrido[2,3-d]pyrimidin-2-yl]amino]cyclopentyl]acetamide AND N-[(1S,3S)-3-[[6-[2,6-difluoro-3-[[(3R)-3-fluoropyrrolidin-1-yl]sulfonylamino]phenyl]-8-methyl-7-oxopyrido[2,3-d]pyrimidin-2-yl]amino]cyclopentyl]acetamide]	21.1	7.5	69	4100	59.4
Cn1c(=O)c(-c2c(F)ccc(NS(=O)(=O)N3CC[C@@H](F)C3)c2F)cc2cnc(NCCC3CCN(C(=O)OC(C)(C)C)CC3)nc21 [Example 1, tert-Butyl 4-[2-[[6-[2,6-difluoro-3-[[(3R)-3-fluoropyrrolidin-1-yl]sulfonylamino]phenyl]-8-methyl-7-oxopyrido[2,3-d]pyrimidin-2-yl]amino]ethyl]piperidine-1-carboxylate]	190	108	63.3	3360	53.1
Cn1c(=O)c(-c2c(F)ccc(NS(=O)(=O)N3CC[C@@H](F)C3)c2F)cc2cnc(NCCc3ccccc3)nc21 [Example 2, (3R)-N-[2,4-difluoro-3-[8-methyl-7-oxo-2-(2-phenylethylamino)pyrido[2,3-d]pyrimidin-6-yl]phenyl]-3-fluoropyrrolidine-1-sulfonamide]	23	7.9	6	491	81.8
Cn1c(=O)c(-c2c(F)ccc(NS(=O)(=O)N3CC[C@@H](F)C3)c2F)cc2cnc(NCCCC(=O)OC(C)(C)C)nc21 [Example 3, tert-butyl 4-[[6-[2,6-difluoro-3-[[(3R)-3-fluoropyrrolidin-1-yl]sulfonylamino]phenyl]-8-methyl-7-oxopyrido[2,3-d]pyrimidin-2-yl]amino]butanoate]	47.4	15.1	13.1	917	69.8
Cn1c(=O)c(-c2c(F)ccc(NS(=O)(=O)N3CC[C@@H](F)C3)c2F)cc2cnc(NCCOCCOCCO)nc21 [Example 4, (3R)-N-[2,4-difluoro-3-[2-[2-[2-(2-hydroxyethoxy)ethoxy]ethylamino]-8-methyl-7-oxopyrido[2,3-d]pyrimidin-6-yl]phenyl]-3-fluoropyrrolidine-1-sulfonamide]	99	39.9	47.4	≥ 10000	>211.0
Cn1c(=O)c(-c2c(F)ccc(NS(=O)(=O)N3CC[C@@H](F)C3)c2F)cc2cnc(NCCCc3ccccc3)nc21 [Example 5, (3R)-N-[2,4-difluoro-3-[8-methyl-7-oxo-2-(3-phenylpropylamino)pyrido[2,3-d]pyrimidin-6-yl]phenyl]-3-fluoropyrrolidine-1-sulfonamide]	115	46.5	42.6	394	9.2
Cn1c(=O)c(-c2c(F)ccc(NS(=O)(=O)N3CC[C@@H](F)C3)c2F)cc2cnc(NCCOc3ccccc3)nc21 [Example 6, (3R)-N-[2,4-difluoro-3-[8-methyl-7-oxo-2-(2-phenoxyethylamino)pyrido[2,3-d]pyrimidin-6-yl]phenyl]-3-fluoropyrrolidine-1-sulfonamide]	120	35.7	13.4	711	52.9
Cn1c(=O)c(-c2c(F)ccc(NS(=O)(=O)N3CC[C@@H](F)C3)c2F)cc2cnc(NC3CCCC3)nc21 [Example 7, (3R)-N-[3-[2-(cyclopentylamino)-8-methyl-7-oxopyrido[2,3-d]pyrimidin-6-yl]-2,4-difluorophenyl]-3-fluoropyrrolidine-1-sulfonamide]	282	91.2	30.8	2170	70.5
Cn1c(=O)c(-c2c(F)ccc(NS(=O)(=O)N3CCCC3)c2F)cc2cnc(NCCC3CCN(C(=O)OC(C)(C)C)CC3)nc21 [Example 8, tert-butyl 4-[2-[[6-[2,6-difluoro-3-(pyrrolidin-1-ylsulfonylamino)phenyl]-8-methyl-7-oxopyrido[2,3-d]pyrimidin-2-yl]amino]ethyl]piperidine-1-carboxylate]	314	261	241	9760	40.5
Cn1c(=O)c(-c2c(F)ccc(NS(=O)(=O)N3CC[C@@H](F)C3)c2F)cc2cnc(NCCN3CCN(C(=O)OC(C)(C)C)CC3)nc21 [Example 45, tert-butyl 4-[2-[[6-[2,6-difluoro-3-[[(3R)-3-fluoropyrrolidin-1-yl]sulfonylamino]phenyl]-8-methyl-7-oxopyrido[2,3-d]pyrimidin-2-yl]amino]ethyl]piperazine-1-carboxylate]			26.8	1480	55.1
